Reference: US11618743B2, “Herbicidal compounds” (SYNGENTA PARTICIPATIONS AG, priority 2017, dated 2023)

Experiments:
Assay in all cases: Post-emergence efficacy, Method A
Assay type in all cases: in vivo
[1] = tested on: Echinochloa crus-galli (ECHCG); settings: Application rate 500 g/Ha, evaluated after 13 days; for Control of weed species ECHCG after post-emergence application (100=total damage to plant; 0=no damage to plant): Method A; for Control of weed species after post-emergence application, ECHCG: 100=total damage to plant, 0=no damage
Description: (§1) Seeds of a variety of test species were sown in standard soil in pots. After cultivation for 14 days (post-emergence) under controlled conditions in a glasshouse (at 24/16° C., day/night; 14 hours light; 65% humidity), the plants were sprayed with an aqueous spray solution derived from the dissolution of the technical active ingredient formula (I) in a small amount of acetone and a special solvent and emulsifier mixture referred to as IF50 (11.12% Emulsogen EL360 TM+44.44% N-methylpyrrolidone+44.44% Dowanol DPM glycol ether), to create a 50 g/l solution which was then diluted to required concentration using 0.25% or 1% Empicol ESC70 (Sodium lauryl ether sulphate)+1% ammonium sulphate as diluent.
(§2) The test plants were then grown in a glasshouse under controlled conditions (at 24/16° C., day/night; 14 hours light; 65% humidity) and watered twice daily. After 13 days the test was evaluated (100=total damage to plant; 0=no damage to plant).
(§3) Ipomoea hederacea (IPOHE), Euphorbia heterophylla (EPHHL), Chenopodium album (CHEAL), Amaranthus palmeri (AMAPA), Lolium perenne (LOLPE), Digitaria sanguinalis (DIGSA), Eleusine indica (ELEIN), Echinochloa crus-galli (ECHCG), Setaria faberi (SETFA)

Setaria faberi (SETFA) = settings: Application rate 500 g/Ha, evaluated after 13 days; for Control of weed species SETFA after post-emergence application (100=total damage to plant; 0=no damage to plant): Method A; for Control of weed species after post-emergence application, SETFA: 100=total damage to plant, 0=no damage
Description: as §1, §2, §3

Eleusine indica (ELEIN) = settings: Application rate 500 g/Ha, evaluated after 13 days; for Control of weed species ELEIN after post-emergence application (100=total damage to plant; 0=no damage to plant): Method A; for Control of weed species after post-emergence application, ELEIN: 100=total damage to plant, 0=no damage
Description: as §1, §2, §3

[2] = tested on: Amaranthus palmeri (AMAPA); settings: Application rate 500 g/Ha, evaluated after 13 days; for Control of weed species AMAPA after post-emergence application (100=total damage to plant; 0=no damage to plant): Method A; for Control of weed species after post-emergence application, AMAPA: 100=total damage to plant, 0=no damage
Description: as §1, §2, §3

[3] = tested on: Euphorbia heterophylla (EPHHL); settings: Application rate 500 g/Ha, evaluated after 13 days; for Control of weed species EPHHL after post-emergence application (100=total damage to plant; 0=no damage to plant): Method A; for Control of weed species after post-emergence application, EPHHL: 100=total damage to plant, 0=no damage
Description: as §1, §2, §3

[4] = tested on: Chenopodium album (CHEAL); settings: Application rate 500 g/Ha, evaluated after 13 days; for Control of weed species CHEAL after post-emergence application (100=total damage to plant; 0=no damage to plant): Method A; for Control of weed species after post-emergence application, CHEAL: 100=total damage to plant, 0=no damage
Description: as §1, §2, §3

[5] = tested on: Digitaria sanguinalis (DIGSA); settings: Application rate 500 g/Ha, evaluated after 13 days; for Control of weed species DIGSA after post-emergence application (100=total damage to plant; 0=no damage to plant): Method A; for Control of weed species after post-emergence application, DIGSA: 100=total damage to plant, 0=no damage
Description: as §1, §2, §3

Row | Structure (SMILES) | Control of weed species ECHCG after post-emergence application (100=total damage to plant; 0=no damage to plant) [1] | Control of weed species SETFA after post-emergence application (100=total damage to plant; 0=no damage to plant) (Setaria faberi (SETFA)) | Control of weed species ELEIN after post-emergence application (100=total damage to plant; 0=no damage to plant) (Eleusine indica (ELEIN)) | Control of weed species AMAPA after post-emergence application (100=total damage to plant; 0=no damage to plant) [2] | Control of weed species EPHHL after post-emergence application (100=total damage to plant; 0=no damage to plant) [3] | Control of weed species CHEAL after post-emergence application (100=total damage to plant; 0=no damage to plant) [4] | Control of weed species DIGSA after post-emergence application (100=total damage to plant; 0=no damage to plant) [5] | Control of weed species after post-emergence application, ECHCG [1] | Control of weed species after post-emergence application, ELEIN (Eleusine indica (ELEIN)) | Control of weed species after post-emergence application, AMAPA [2] | Control of weed species after post-emergence application, EPHHL [3] | Control of weed species after post-emergence application, CHEAL [4] | Control of weed species after post-emergence application, DIGSA [5] | Control of weed species after post-emergence application, SETFA (Setaria faberi (SETFA))
1 | COC(=O)CC[n+]1ccc(-c2ncccn2)cn1.O=C([O-])C(F)(F)F [Compound A54, methyl 3-(4-pyrimidin-2-ylpyridazin-1-ium-1-yl)propanoate 2,2,2-trifluoroacetate] | 90 | 100 | 100 | 90 | 70 | 90 | 100 |  |  |  |  |  |  | 
2 | Nc1cc(-c2cc[n+](CCC(=O)O)nc2)ncn1.O=C([O-])C(F)(F)F [Compound A163] |  |  |  |  |  |  |  | 40 | 90 | 100 | 50 | 60 | 50 | 
3 | Cc1n[n+](CCC(=O)O)ccc1-c1ccccn1.O=C([O-])C(F)(F)F [Compound A145] | 0 | 0 | 0 | 10 | 10 | 10 | 10 |  |  |  |  |  |  | 
4 | CC(C)(C[n+]1ccc(-c2ccncn2)cn1)C(=O)O.O=C([O-])C(F)(F)F [Compound A167] |  |  |  |  |  |  |  | 60 | 80 | 20 | 90 | 70 | 50 | 40
5 | COC(=O)C(C)[n+]1ccc(-c2ncccn2)cn1.O=C([O-])C(F)(F)F (stereo not shown) [Compound A192] |  |  |  |  |  |  |  | 30 | 30 | 90 | 40 | 60 | 30 | 20
6 | O=C([O-])C(F)(F)F.OCCC[n+]1ccc(-c2ncccn2)cn1 [Compound A206] |  |  |  |  |  |  |  | 20 | 10 | 60 | 60 | 90 | 20 | 10
7 | CC(C)(CC(=O)O)[n+]1ccc(-c2ccncn2)cn1.O=C([O-])C(F)(F)F [Compound A189] |  |  |  |  |  |  |  | 80 | 90 | 100 | 90 | 100 | 50 | 70
8 | O=C(O)CC[n+]1ccc(-c2ccnc(O)n2)cn1.O=C([O-])C(F)(F)F [Compound A86] | 20 | 40 | 10 | 30 | 50 | 40 | 30 |  |  |  |  |  |  | 
9 | O=C(O)c1ccc(C[n+]2ccc(-c3ncccn3)cn2)cc1.O=C([O-])C(F)(F)F [Compound A228] |  |  |  |  |  |  |  | 10 | 10 | 80 |  | 60 | 20 | 10
10 | O=C(O)CC[n+]1ccc(-c2ncc(C(F)(F)F)cc2Cl)cn1.O=C([O-])C(F)(F)F [Compound A197] |  |  |  |  |  |  |  | 0 | 10 | 100 | 10 | 10 | 20 | 0
11 | Nc1cc(-c2cc[n+](CCC(=O)O)nc2)nc(N)n1.O=C([O-])C(F)(F)F [Compound A188] |  |  |  |  |  |  |  | 50 | 20 | 90 | 30 | 50 | 40 | 30
12 | N[C@@H](CC[n+]1ccc(-c2ncccn2)cn1)C(=O)O.O=C(O)C(F)(F)F.O=C([O-])C(F)(F)F [Compound A201, [(1S)-1-carboxy-3-(4-pyrimidin-2-ylpyridazin-1-ium-1-yl)propyl]ammonium 2,2,2-trifluoroacetate] |  |  |  |  |  |  |  | 70 |  |  |  |  | 80 | 80
13 | Cc1nccc(-c2cc[n+](CCC(=O)O)nc2)n1.O=C([O-])C(F)(F)F [Compound A55] | 90 | 100 | 100 |  | 70 | 80 | 100 |  |  |  |  |  |  | 
14 | N#Cc1ccc(-c2cc[n+](CCC(=O)O)nc2)nc1.O=C([O-])C(F)(F)F [Compound A176] |  |  |  |  |  |  |  | 30 | 70 | 40 |  | 30 | 30 | 40
15 | CC(C[n+]1ccc(-c2ccncn2)cn1)C(=O)O.O=C([O-])C(F)(F)F (stereo not shown) [Compound A171] |  |  |  |  |  |  |  | 60 | 80 | 100 |  | 80 | 60 | 60
16 | O=C([O-])C(F)(F)F.O=P(O)(O)CCC[n+]1ccc(-c2ncccn2)cn1 [Compound A233] |  |  |  |  |  |  |  | 60 | 50 | 100 |  | 100 | 60 | 70
17 | O=C([O-])C(F)(F)F.OCC[n+]1ccc(-c2ncccn2)cn1 [Compound A195, 2-(4-pyrimidin-2-ylpyridazin-1-ium-1-yl)ethanol 2,2,2-trifluoroacetate] |  |  |  |  |  |  |  | 10 | 10 |  |  | 60 | 20 | 
18 | COC(=O)c1ccc(C[n+]2ccc(-c3ncccn3)cn2)cc1.O=C([O-])C(F)(F)F [Compound A229] |  |  |  |  |  |  |  | 0 | 0 | 10 |  | 0 | 20 | 10
